Measured values as given in patent publication US20250311722A1, “IMPROVED BIOCIDE” (Purgos ApS, priority 2022, published 2025).
Where “and” joins values, the source holds several entries; their conditions need not be identical. Equal values may be shown once. Read-outs that look alike come from different tables or passages of the source.

Experiments:
[1] = system: Candida albicans ISI 1226; experiment: Minimum bactericidal concentration (MBC); assay type: cell-based; design: MBC data (outgrowth): unit not given here
Text: Even when no growth is detectable in the MIC tests, it is possible that the microorganisms have survived the treatment i.e., they are not killed but just prevented from growing. In order to test for survivors, MBC plates were subsequently made from the MIC plates.

Poliovirus = assay type: cell-based
[2] = system: Coniophora puteana. BAM Ebw. 15; experiment: EN 113 test against wood destroying basidiomycetes; assay type: cell-based; settings: for Corrected mass loss / Mass loss: single blocks
Text: (§1) EN 113, 2020: Durability of wood and wood-based products-Test method against wood destroying basidiomycetes. Assessment of biocidal efficacy of wood preservatives.
(§2) Assessment of the results shown in table XIV.: The protection provided for the wood by the test preservative at the given concentration is deemed to be adequate if: • a) the corrected mean loss is less than 3.0% (m/m) • b) not more than one specimen has suffered a loss in mass greater than 3.0% (m/m) but less than 5.0% (m/m)
(§3) The impregnation process was carried out on 24-03-2021 with the following conditions:
(§4) Pre-vacuum at 0.1 bar for 30 minutes.
(§5) Pressure of 13 bars for 60 minutes.
(§6) Scots pine sapwood (Pinus sylvestris L.) for brown rot fungi with an average density of 589 kg/m3.
(§7) 4 weeks according to EN 113 at 65% RH and 20° C. until stable mass was obtained.
(§8) Ionising radiation (2× 25 kGy).

[3] = system: Gloeophyllum trabeum. BAM Ebw. 109; experiment: EN 113 test against wood destroying basidiomycetes; assay type: cell-based; settings: for Corrected mass loss / Mass loss: single blocks; for Corrected mass loss, Mean / Mass loss, Mean: mean of blocks
Text: as §1, §2, §3, §4, §5, §6, §7, §8

Poria placenta. FPRL 280 = experiment: EN 113 test against wood destroying basidiomycetes; assay type: cell-based; settings: for Corrected mass loss / Mass loss: single blocks
Text: as §1, §2, §3, §4, §5, §6, §7, §8

[4] = system: Coriolus versicolor. CTB 863 A; experiment: EN 113 test against wood destroying basidiomycetes; assay type: cell-based; settings: for Corrected mass loss, Mean / Mass loss, Mean: mean of blocks; for Corrected mass loss / Mass loss: single blocks
Method: EN 113, 2020: Durability of wood and wood-based products-Test method against wood destroying basidiomycetes. Assessment of biocidal efficacy of wood preservatives. […] The impregnation process was carried out on 24-03-2021 with the following conditions: Pre-vacuum at 0.1 bar for 30 minutes. Pressure of 13 bars for 60 minutes. Beech (Fagus sylvatica L.) for white rot fungi (Coriolus versicolor) with an average density 725 kg/m3. 4 weeks according to EN 113 at 65% RH and 20° C. until stable mass was obtained. Ionising radiation (2× 25 kGy).

Coniophora puteana = experiment: Wood impregnation with 10 and 20% NBDA, 6 weeks of exposure; assay type: cell-based; settings: for Corrected mass loss, Mean / Mass loss, Mean / Corrected mass loss / Mass loss: 6 weeks of exposure; for Corrected mass loss, Mean / Mass loss, Mean: mean of blocks; for Corrected mass loss / Mass loss: single blocks
Text: Below table presents results from impregnation with 10 and 20% NBDA to water phase. It is expected that concentrations of up to at least 35% NBDA and/or APDEA and/or 2,2′-(octylimino)bisethanol are showing promising results.

rat = settings: cited from earlier work
[5] = concentrations of 0.36%, 0.51%, 0.72%, 1.01% and 1.43%

**Q.** Which results are given for `CCCCN(CCO)CCO` [NBDA, N-butyldiethanolamine]?
**A.** MBC (%) [1]: 1.25%; MBC data (outgrowth) ([1]; 0.02% NBDA): 1.332 and 1.357; MBC data (outgrowth) ([1]; 0.04% NBDA): 1.291 and 1.314; MBC data (outgrowth) ([1]; 0.08% NBDA): 1.278 and 1.314; MBC data (outgrowth) ([1]; 0.16% NBDA): 1.171 and 1.485; MBC data (outgrowth) ([1]; 0.31% NBDA): 1.168 and 1.175; MBC data (outgrowth) ([1]; 1.25% NBDA): 0.079 and 0.080; MBC data (outgrowth) ([1]; 2.50% NBDA): 0.074 and 0.075; MBC data (outgrowth) ([1]; 5.00% NBDA): 0.068; Mean log reduction after 60 seconds (Poliovirus; 1.0% NBDA): 0.26; Mean log reduction after 60 seconds (Poliovirus; 5.0% NBDA): 0.17; Toxic value, Retention of product ([2]; Scots pine sapwood): >9.86 kg/m^3; Toxic value, Solution conc. ([2]; Scots pine sapwood): >1.43 % w/w; Corrected mass loss, Mean ([2]; solution conc. 0.36% w/w): 36.6%; Mass loss, Mean ([2]; solution conc. 0.36% w/w): 36.8%; Corrected mass loss ([2]; solution conc. 0.36% w/w): 39.2% and 27.2% and 47.6% and 32.3%; Mass loss ([2]; solution conc. 0.36% w/w): 39.4% and 27.4% and 47.8% and 32.5%; Corrected mass loss, Mean ([2]; solution conc. 0.51% w/w): 38.3%; Mass loss, Mean ([2]; solution conc. 0.51% w/w): 38.5%; Corrected mass loss ([2]; solution conc. 0.51% w/w): 42.4% and 39.5% and 34.0% and 37.2%; Mass loss ([2]; solution conc. 0.51% w/w): 42.6% and 39.7% and 34.2% and 37.4%; Corrected mass loss, Mean ([2]; solution conc. 0.72% w/w): 37.4%; Mass loss, Mean ([2]; solution conc. 0.72% w/w): 37.1%; Corrected mass loss ([2]; solution conc. 0.72% w/w): 29.8% and 43.3% and 36.9% and 39.7%; Mass loss ([2]; solution conc. 0.72% w/w): 29.5% and 43.0% and 36.6% and 39.3%; Corrected mass loss, Mean ([2]; solution conc. 1.01% w/w): 40.4%; Mass loss, Mean ([2]; solution conc. 1.01% w/w): 39.9%; Corrected mass loss ([2]; solution conc. 1.01% w/w): 37.2% and 41.8% and 45.1% and 37.3%; Mass loss ([2]; solution conc. 1.01% w/w): 36.7% and 41.4% and 44.6% and 36.8%; Corrected mass loss, Mean ([2]; solution conc. 1.43% w/w): 36.1%; Mass loss, Mean ([2]; solution conc. 1.43% w/w): 35.0%; Corrected mass loss ([2]; solution conc. 1.43% w/w): 31.1% and 37.2% and 38.4% and 37.8%; Mass loss ([2]; solution conc. 1.43% w/w): 30.0% and 36.2% and 37.3% and 36.7%; Toxic value, Retention of product ([3]; Scots pine sapwood): 6.85-10.03 kg/m^3; Toxic value, Solution conc. ([3]; Scots pine sapwood): 1.01-1.43 % w/w; fungicide for preventing wood destruction [3, 5]: effective as a fungicide; Corrected mass loss ([3]; solution conc. 0.36% w/w): 44.8% and 30.6% and 32.5% and 33.8%; Mass loss ([3]; solution conc. 0.36% w/w): 45.0% and 30.8% and 32.7% and 34.0%; Corrected mass loss, Mean ([3]; solution conc. 0.36 % w/w): 35.4%; Mass loss, Mean ([3]; solution conc. 0.36 % w/w): 35.6%; Corrected mass loss ([3]; solution conc. 0.51% w/w): 34.8% and 29.4% and 36.4% and 31.1%; Mass loss ([3]; solution conc. 0.51% w/w): 35.0% and 29.6% and 36.6% and 31.3%; Corrected mass loss, Mean ([3]; solution conc. 0.51 % w/w): 32.9%; Mass loss, Mean ([3]; solution conc. 0.51 % w/w): 33.1%; Corrected mass loss ([3]; solution conc. 0.72% w/w): 30.9% and 33.1% and 34.2% and 26.5%; Mass loss ([3]; solution conc. 0.72% w/w): 30.6% and 32.7% and 33.8% and 26.1%; Corrected mass loss, Mean ([3]; solution conc. 0.72 % w/w): 31.2%; Mass loss, Mean ([3]; solution conc. 0.72 % w/w): 30.8%; Corrected mass loss, Mean ([3]; solution conc. 1.01 % w/w): 11.4%; Mass loss, Mean ([3]; solution conc. 1.01 % w/w): 11.0%; Corrected mass loss ([3]; solution conc. 1.43% w/w): 0.7% and 0.3% and 2.0%; Mass loss ([3]; solution conc. 1.43% w/w): −0.4% and −0.8% and 1.0% and 0.9%; Corrected mass loss, Mean ([3]; solution conc. 1.43 % w/w): 1.3%; Mass loss, Mean ([3]; solution conc. 1.43 % w/w): 0.2%; Toxic value, Retention of product (Poria placenta. FPRL 280; Scots pine sapwood): 4.87-7.02 kg/m^3; Toxic value, Solution conc. (Poria placenta. FPRL 280; Scots pine sapwood): 0.72-1.01 % w/w; fungicide for preventing wood destruction (Poria placenta. FPRL 280; [5]): effective as a fungicide; Corrected mass loss, Mean (Poria placenta. FPRL 280; solution conc. 0.36% w/w): 14.2%; Mass loss, Mean (Poria placenta. FPRL 280; solution conc. 0.36% w/w): 14.4%; Corrected mass loss (Poria placenta. FPRL 280; solution conc. 0.36% w/w): 14.0% and 19.2% and 11.4% and 12.3%; Mass loss (Poria placenta. FPRL 280; solution conc. 0.36% w/w): 14.2% and 19.4% and 11.6% and 12.5%; Corrected mass loss, Mean (Poria placenta. FPRL 280; solution conc. 0.51% w/w): 14.6%; Mass loss, Mean (Poria placenta. FPRL 280; solution conc. 0.51% w/w): 14.8%; Corrected mass loss (Poria placenta. FPRL 280; solution conc. 0.51% w/w): 14.0% and 17.1% and 14.2% and 13.3%; Mass loss (Poria placenta. FPRL 280; solution conc. 0.51% w/w): 14.2% and 17.3% and 14.4% and 13.5%; Corrected mass loss, Mean (Poria placenta. FPRL 280; solution conc. 0.72% w/w): 8.2%; Mass loss, Mean (Poria placenta. FPRL 280; solution conc. 0.72% w/w): 7.8%; Corrected mass loss (Poria placenta. FPRL 280; solution conc. 0.72% w/w): 9.2% and 9.0% and 6.3% and 8.2%; Mass loss (Poria placenta. FPRL 280; solution conc. 0.72% w/w): 8.9% and 8.7% and 5.9% and 7.9%; Corrected mass loss, Mean (Poria placenta. FPRL 280; solution conc. 1.01% w/w): 1.4%; Mass loss, Mean (Poria placenta. FPRL 280; solution conc. 1.01% w/w): 1.0%; Corrected mass loss (Poria placenta. FPRL 280; solution conc. 1.01% w/w): 2.5% and 0.1% and 1.3% and 1.9%; Mass loss (Poria placenta. FPRL 280; solution conc. 1.01% w/w): 2.0% and −0.3% and 0.8% and 1.4%; Corrected mass loss, Mean (Poria placenta. FPRL 280; solution conc. 1.43% w/w): 1.5%; Mass loss, Mean (Poria placenta. FPRL 280; solution conc. 1.43% w/w): 0.4%; Corrected mass loss (Poria placenta. FPRL 280; solution conc. 1.43% w/w): 0.5% and 4.1% and 0.7% and 0.6%; Mass loss (Poria placenta. FPRL 280; solution conc. 1.43% w/w): −0.6% and 3.0% and −0.4% and −0.5%; Toxic value, Retention of product ([4]; Beech): >15.40 kg/m^3; Toxic value, Solution conc. ([4]; Beech): >2.20 % w/w; Corrected mass loss, Mean ([4]; solution conc. 0.55 % w/w): 26.8%; Mass loss, Mean ([4]; solution conc. 0.55 % w/w): 26.8%; Corrected mass loss ([4]; solution conc. 0.55 % w/w): 32.3% and 27.5% and 25.6% and 21.8%; Mass loss ([4]; solution conc. 0.55 % w/w): 32.3% and 27.5% and 25.6% and 21.8%; Corrected mass loss, Mean ([4]; solution conc. 0.78 % w/w): 31.8%; Mass loss, Mean ([4]; solution conc. 0.78 % w/w): 31.7%; Corrected mass loss ([4]; solution conc. 0.78 % w/w): 26.0% and 25.1% and 31.3% and 44.7%; Mass loss ([4]; solution conc. 0.78 % w/w): 25.9% and 25.0% and 31.2% and 44.6%; Corrected mass loss, Mean ([4]; solution conc. 1.09 % w/w): 31.2%; Mass loss, Mean ([4]; solution conc. 1.09 % w/w): 30.9%; Corrected mass loss ([4]; solution conc. 1.09 % w/w): 30.5% and 29.8% and 29.4% and 34.9%; Mass loss ([4]; solution conc. 1.09 % w/w): 30.2% and 29.5% and 29.2% and 34.6%; Corrected mass loss, Mean ([4]; solution conc. 1.55 % w/w): 28.3%; Mass loss, Mean ([4]; solution conc. 1.55 % w/w): 27.4%; Corrected mass loss ([4]; solution conc. 1.55 % w/w): 28.6% and 26.8% and 27.3% and 30.3%; Mass loss ([4]; solution conc. 1.55 % w/w): 27.8% and 25.9% and 26.4% and 29.5%; Corrected mass loss, Mean ([4]; solution conc. 2.20 % w/w): 25.7%; Mass loss, Mean ([4]; solution conc. 2.20 % w/w): 24.1%; wood protection at high concentrations (Coniophora puteana; impregnation with 10 and 20% NBDA to water phase): strong results; Corrected mass loss, Mean (Coniophora puteana; solution conc. 10.00 % w/w): 0.3%; Mass loss, Mean (Coniophora puteana; solution conc. 10.00 % w/w): −0.4%; Corrected mass loss (Coniophora puteana; solution conc. 10.00 % w/w): −0.4% and 0.3% and 0.9% and 0.0% and 1.1% and −0.2% and −0.8%; Mass loss (Coniophora puteana; solution conc. 10.00 % w/w): −0.9% and −0.2% and 0.4% and −0.5% and 0.6% and −0.7% and −1.3%; Corrected mass loss, Mean (Coniophora puteana; solution conc. 20.00 % w/w): 0.0%; Mass loss, Mean (Coniophora puteana; solution conc. 20.00 % w/w): −1.5%; Corrected mass loss (Coniophora puteana; solution conc. 20.00 % w/w): 0.3% and −0.1% and −0.5% and −0.8% and −0.7% and −0.6%; Mass loss (Coniophora puteana; solution conc. 20.00 % w/w): −0.7% and −1.1% and −1.6% and −1.8% and −1.7%; LD50 (rat, oral) (rat): 4250 mg/kg
